# In patent US10144758B2, “Deuterated bile acids” (Metselex, Inc., priority 2013, dated 2018):
# Assays:
# primary rat hepatocytes [1] = assay: Cytotoxicity of compound alone (ApoTox-Glo Triplex / LDH Cytotoxicity Detection Kit); format: cell-based
# Method: Primary rat hepatocytes were isolated from male rats (100-150 grams) by collagenase perfusion (as described by Solá S, et al., 2003, Journal of Biological Chemistry 278: 48831-48838)). Briefly, rats were anesthetized with phenobarbital sodium (100 mg/kg body weight) injected into the peritoneal cavity. After administration of heparin (200 units/kg body weight) in the tail vein, the animal's abdomen was opened and the portal vein exposed and cannulated. The liver was then perfused at 37° C. in situ with a calcium-free Hanks' Balanced Salt Solution (HBSS) for about 10 minutes, and then with 0.05% collagenase type IV in calcium-present HBSS for another 10 minutes. Hepatocyte suspensions were obtained by passing collagenase-digested livers through 125 μm gauze and washing cells in Complete William's E medium (William's E medium, Sigma-Aldrich Corp., St Louis, Mo., USA) supplemented with 26 mM sodium bicarbonate, 23 mM HEPES, 0.01 units/mL insulin, 2 mM L-glutamine, 10 nM dexamethasone, 100 units/mL penicillin, and 10% heat-inactivated fetal bovine serum (Invitrogen Corp., Carlsbad, Calif., USA). Viable primary rat hepatocytes were enriched by low-speed centrifugation at 200 g for 3 minutes. Cell viability was determined by trypan blue exclusion and was typically 80-85%. After isolation, hepatocytes were resuspended in Complete William's E medium and plated on Primaria™ tissue culture dishes (BD Biosciences, San Jose, Calif., USA) at 5×10^4 cells/cm^2. Cells were maintained at 37° C. in a humidified atmosphere of 5% CO2 for 6 hours to allow attachment. Plates were then washed with medium to remove dead cells and incubated in Complete William's E medium supplemented with either 100-400 μM UDCA (Sigma-Aldrich Corp.), 100-400 μM deuterated UDCA (compound 5), or no addition (control). Eight hours after pre-incubation, cells were exposed to 1 nM recombinant human TGF-β1 (R&D Systems Inc., Minneapolis, Minn., USA) for 36 hours, or to 50 or 100 μM DCA for 16 hours before processing for cell viability, cytotoxicity and apoptosis assays.
# (§1) The ApoTox-Glo™ Triplex Assay (Promega Corp., Madison, Wis., USA) was used to evaluate cell viability, cytotoxicity and caspase-3/7 activity, according to the manufacturer's protocol, using a GloMax+ Multi Detection System (Promega Corp.). General cell death was also evaluated using the lactate dehydrogenase (LDH) Cytotoxicity Detection Kit^PLUS (Roche Diagnostics GmbH, Mannheim, Germany), following the manufacturer's instructions.
# primary rat hepatocytes [2] = assay: DCA-induced caspase-3/7 activity (ApoTox-Glo Triplex); format: cell-based; conditions: 50 and 100 μM DCA; pretreatment; FIG. 7B
# Method: Primary rat hepatocytes were isolated from male rats (100-150 grams) by collagenase perfusion (as described by Solá S, et al., 2003, Journal of Biological Chemistry 278: 48831-48838)). Briefly, rats were anesthetized with phenobarbital sodium (100 mg/kg body weight) injected into the peritoneal cavity. After administration of heparin (200 units/kg body weight) in the tail vein, the animal's abdomen was opened and the portal vein exposed and cannulated. The liver was then perfused at 37° C. in situ with a calcium-free Hanks' Balanced Salt Solution (HBSS) for about 10 minutes, and then with 0.05% collagenase type IV in calcium-present HBSS for another 10 minutes. […] Cell viability was determined by trypan blue exclusion and was typically 80-85%. […]
# as §1, with “instructions. […]” for “instructions.”
substance,measurement,setting,value
"7,8-[^2H]-3α,7α-dihydroxy-5β-cholan-24-oic acid/7-[^2H]-3α,7α-dihydroxy-5β-cholan-24-oic acid [Compound 5]",cytotoxicity compared with UDCA,"primary rat hepatocytes [1]; 400 μM, 24 and 44 hours",comparable to UDCA cytotoxicity
same,increase in cytotoxicity,"primary rat hepatocytes [1]; 400 μM, 24 hours",~2%
same,increase in cytotoxicity,"primary rat hepatocytes [1]; 400 μM, 44 hours",~15%
same,signs of cytotoxicity,primary rat hepatocytes [1]; 100 and 200 μM,no relevant signs of cytotoxicity
same,inhibition of caspase activity,primary rat hepatocytes [2],more effective than UDCA
